Our source for the EC50, AC50 and IC50 values is ChEMBL document CHEMBL1201862, “PubChem BioAssay data set” (2004).

Calls of active or inactive are those of the source. Where only a bound is given, the exact number is not on record here.

Experiment [1] has as its target Troponin, cardiac muscle (Homo sapiens, UniProt P19429+P45379+P63316). The experiment is described as follows: Fluorescence-based biochemical high throughput dose response assay for activators of the calcium sensitivity of cardiac Regulated Thin Filaments (RTF). [Related pubchem assays (depositor defined):AID493008, AID493018, AID504382, AID504383]. In kind it is protein-complex assay.

In experiment [2] the test system is INS1. The experiment is described as follows: beta cell apoptosis inhibitors, cytokine rescue, dose response, luminescence, retest (AID 449756).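 Further: cell death triggered by IL-1 beta plus TNF-alpha plus IFN-gamma mixture; protective hits raise ATP signal compared with cytokine alone wells.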 Format: functional, cell-based. The settings on record: Rattus norvegicus.
In experiment [3] the target is T1, Corticotropin-releasing factor receptor 2/Corticotropin-releasing factor-binding protein (Homo sapiens, UniProt P24387+Q13324).
T1 sequence (Q13324 whole entry): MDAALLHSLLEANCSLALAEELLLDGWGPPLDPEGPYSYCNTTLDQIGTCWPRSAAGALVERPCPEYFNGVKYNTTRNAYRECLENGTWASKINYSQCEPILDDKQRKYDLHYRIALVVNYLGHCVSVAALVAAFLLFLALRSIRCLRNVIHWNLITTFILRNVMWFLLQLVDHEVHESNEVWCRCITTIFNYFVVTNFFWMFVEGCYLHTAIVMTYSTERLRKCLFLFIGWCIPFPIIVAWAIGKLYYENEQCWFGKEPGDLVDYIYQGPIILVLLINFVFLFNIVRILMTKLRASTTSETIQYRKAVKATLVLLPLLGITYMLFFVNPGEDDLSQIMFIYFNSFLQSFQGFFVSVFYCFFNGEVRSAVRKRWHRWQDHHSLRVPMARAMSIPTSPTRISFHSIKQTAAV
T1 sequence (P24387 whole entry): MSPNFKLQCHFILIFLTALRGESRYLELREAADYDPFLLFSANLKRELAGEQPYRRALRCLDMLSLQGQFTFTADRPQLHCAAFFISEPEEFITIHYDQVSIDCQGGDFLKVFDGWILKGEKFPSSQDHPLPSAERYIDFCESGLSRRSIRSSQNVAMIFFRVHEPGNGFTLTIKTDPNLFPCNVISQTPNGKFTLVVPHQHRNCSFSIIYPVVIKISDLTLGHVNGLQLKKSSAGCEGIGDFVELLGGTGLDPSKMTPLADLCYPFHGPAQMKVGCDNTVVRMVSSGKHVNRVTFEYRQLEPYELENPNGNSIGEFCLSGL
The experiment is described as follows: activators of CRF receptor 2 with binding protein – uHTS hits, confirmation (AID 602473). In kind it is functional. The settings on record: read-out: EC50_Mean.

The target in experiment [4] is T2, Short transient receptor potential channel 4 (Mus musculus, UniProt Q9QUQ5).
T2 sequence (Q9QUQ5 whole entry): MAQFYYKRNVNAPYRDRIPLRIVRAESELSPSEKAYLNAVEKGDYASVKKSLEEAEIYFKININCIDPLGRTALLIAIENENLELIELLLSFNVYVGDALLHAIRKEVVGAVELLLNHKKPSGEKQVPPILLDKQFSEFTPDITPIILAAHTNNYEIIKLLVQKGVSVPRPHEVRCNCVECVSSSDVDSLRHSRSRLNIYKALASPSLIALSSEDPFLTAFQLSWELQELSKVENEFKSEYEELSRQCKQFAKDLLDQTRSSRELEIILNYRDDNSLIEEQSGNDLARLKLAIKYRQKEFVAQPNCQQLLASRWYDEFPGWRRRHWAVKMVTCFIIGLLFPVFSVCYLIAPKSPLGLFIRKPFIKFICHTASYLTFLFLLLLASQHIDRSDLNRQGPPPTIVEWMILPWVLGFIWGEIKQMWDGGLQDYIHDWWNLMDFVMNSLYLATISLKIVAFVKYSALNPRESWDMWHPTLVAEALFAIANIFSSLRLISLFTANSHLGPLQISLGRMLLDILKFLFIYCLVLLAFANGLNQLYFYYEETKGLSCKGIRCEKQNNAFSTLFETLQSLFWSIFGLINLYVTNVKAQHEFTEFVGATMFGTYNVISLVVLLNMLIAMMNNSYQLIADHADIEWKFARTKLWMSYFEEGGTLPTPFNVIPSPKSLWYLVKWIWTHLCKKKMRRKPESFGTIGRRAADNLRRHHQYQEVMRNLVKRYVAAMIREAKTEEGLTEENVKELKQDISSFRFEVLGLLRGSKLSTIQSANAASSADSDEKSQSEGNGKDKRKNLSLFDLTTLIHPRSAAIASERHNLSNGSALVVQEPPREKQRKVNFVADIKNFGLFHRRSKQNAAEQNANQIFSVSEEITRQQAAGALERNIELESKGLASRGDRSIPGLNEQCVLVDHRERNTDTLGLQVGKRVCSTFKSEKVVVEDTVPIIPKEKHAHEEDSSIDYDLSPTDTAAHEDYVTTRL
The experiment is described as follows: mouse TRPC4 channel activators, dose response, cell-based, HEK293 TRPC4/mu-opioid, Fluo-4 calcium (AID 434937). In kind it is functional.

For experiment [5], the target named is DNA dC->dU-editing enzyme APOBEC-3A (Homo sapiens, UniProt P31941). The experiment is described as follows: Dose Response confirmation of small molecule APOBEC3A DNA Deaminase Inhibitors via a fluorescence-based single-stranded DNA deaminase assay. [Related pubchem assays (depositor defined):AID493011, AID493024]. Format: functional.
Sequence of DNA dC->dU-editing enzyme APOBEC-3A (P31941 whole entry): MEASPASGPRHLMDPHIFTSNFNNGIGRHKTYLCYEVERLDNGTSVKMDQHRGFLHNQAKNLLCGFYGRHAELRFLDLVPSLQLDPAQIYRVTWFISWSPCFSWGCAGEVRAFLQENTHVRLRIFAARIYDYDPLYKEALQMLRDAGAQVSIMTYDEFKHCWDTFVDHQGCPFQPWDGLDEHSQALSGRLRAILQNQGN
Experiment [6] deals with DNA dC->dU-editing enzyme APOBEC-3G (Homo sapiens, UniProt Q9HC16). In kind it is functional.
Sequence of DNA dC->dU-editing enzyme APOBEC-3G (Q9HC16 whole entry): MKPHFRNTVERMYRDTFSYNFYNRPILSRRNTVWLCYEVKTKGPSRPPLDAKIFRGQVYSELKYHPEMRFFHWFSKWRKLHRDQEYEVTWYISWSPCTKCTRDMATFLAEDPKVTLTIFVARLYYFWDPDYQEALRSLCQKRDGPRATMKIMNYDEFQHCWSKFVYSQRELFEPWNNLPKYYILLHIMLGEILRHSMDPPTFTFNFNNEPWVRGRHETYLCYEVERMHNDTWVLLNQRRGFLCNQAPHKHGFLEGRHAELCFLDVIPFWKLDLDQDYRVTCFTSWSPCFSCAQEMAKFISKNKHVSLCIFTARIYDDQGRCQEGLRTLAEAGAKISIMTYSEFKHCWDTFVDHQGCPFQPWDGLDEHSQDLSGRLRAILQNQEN
Experiment [7] concerns the target T3, Protein skinhead-1 (Caenorhabditis elegans, UniProt P34707).
T3 sequence (P34707 whole entry): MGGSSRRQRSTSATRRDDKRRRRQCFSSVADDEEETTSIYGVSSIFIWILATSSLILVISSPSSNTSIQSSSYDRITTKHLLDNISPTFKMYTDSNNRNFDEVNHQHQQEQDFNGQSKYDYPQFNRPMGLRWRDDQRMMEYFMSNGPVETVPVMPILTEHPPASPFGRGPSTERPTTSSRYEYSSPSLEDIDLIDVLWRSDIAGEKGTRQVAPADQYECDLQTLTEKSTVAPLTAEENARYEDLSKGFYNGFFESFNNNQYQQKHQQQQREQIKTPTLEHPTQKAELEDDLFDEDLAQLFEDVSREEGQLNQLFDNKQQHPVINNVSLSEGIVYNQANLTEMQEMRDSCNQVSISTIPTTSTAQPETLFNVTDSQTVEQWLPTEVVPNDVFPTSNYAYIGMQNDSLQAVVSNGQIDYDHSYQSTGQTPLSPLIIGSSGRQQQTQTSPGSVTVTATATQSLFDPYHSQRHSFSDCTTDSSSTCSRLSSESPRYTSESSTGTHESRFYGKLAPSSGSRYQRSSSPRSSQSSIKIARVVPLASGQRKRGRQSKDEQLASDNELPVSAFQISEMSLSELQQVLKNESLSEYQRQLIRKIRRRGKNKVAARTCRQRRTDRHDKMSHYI
Format: functional.

Experiment [8] has as its target T4, Exodeoxyribonuclease V (Escherichia coli (strain K12), UniProt P04993+P07648+P08394).
T4 sequence (P04993 whole entry): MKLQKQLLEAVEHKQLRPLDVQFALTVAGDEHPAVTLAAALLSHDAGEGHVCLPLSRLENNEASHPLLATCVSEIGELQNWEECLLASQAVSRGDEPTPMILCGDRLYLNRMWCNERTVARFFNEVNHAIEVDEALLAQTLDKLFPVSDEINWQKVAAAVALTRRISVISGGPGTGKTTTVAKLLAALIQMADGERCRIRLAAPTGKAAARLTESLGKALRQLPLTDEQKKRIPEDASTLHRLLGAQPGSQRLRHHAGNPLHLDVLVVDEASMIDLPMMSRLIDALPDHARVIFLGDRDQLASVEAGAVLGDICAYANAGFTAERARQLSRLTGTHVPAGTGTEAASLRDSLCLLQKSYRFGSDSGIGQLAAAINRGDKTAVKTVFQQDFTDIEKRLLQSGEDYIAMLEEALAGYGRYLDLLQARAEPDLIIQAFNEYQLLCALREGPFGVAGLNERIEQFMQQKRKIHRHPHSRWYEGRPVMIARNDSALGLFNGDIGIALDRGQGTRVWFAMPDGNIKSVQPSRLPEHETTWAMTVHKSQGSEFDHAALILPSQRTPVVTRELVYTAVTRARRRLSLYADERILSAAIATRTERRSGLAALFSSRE
T4 sequence (P07648 whole entry): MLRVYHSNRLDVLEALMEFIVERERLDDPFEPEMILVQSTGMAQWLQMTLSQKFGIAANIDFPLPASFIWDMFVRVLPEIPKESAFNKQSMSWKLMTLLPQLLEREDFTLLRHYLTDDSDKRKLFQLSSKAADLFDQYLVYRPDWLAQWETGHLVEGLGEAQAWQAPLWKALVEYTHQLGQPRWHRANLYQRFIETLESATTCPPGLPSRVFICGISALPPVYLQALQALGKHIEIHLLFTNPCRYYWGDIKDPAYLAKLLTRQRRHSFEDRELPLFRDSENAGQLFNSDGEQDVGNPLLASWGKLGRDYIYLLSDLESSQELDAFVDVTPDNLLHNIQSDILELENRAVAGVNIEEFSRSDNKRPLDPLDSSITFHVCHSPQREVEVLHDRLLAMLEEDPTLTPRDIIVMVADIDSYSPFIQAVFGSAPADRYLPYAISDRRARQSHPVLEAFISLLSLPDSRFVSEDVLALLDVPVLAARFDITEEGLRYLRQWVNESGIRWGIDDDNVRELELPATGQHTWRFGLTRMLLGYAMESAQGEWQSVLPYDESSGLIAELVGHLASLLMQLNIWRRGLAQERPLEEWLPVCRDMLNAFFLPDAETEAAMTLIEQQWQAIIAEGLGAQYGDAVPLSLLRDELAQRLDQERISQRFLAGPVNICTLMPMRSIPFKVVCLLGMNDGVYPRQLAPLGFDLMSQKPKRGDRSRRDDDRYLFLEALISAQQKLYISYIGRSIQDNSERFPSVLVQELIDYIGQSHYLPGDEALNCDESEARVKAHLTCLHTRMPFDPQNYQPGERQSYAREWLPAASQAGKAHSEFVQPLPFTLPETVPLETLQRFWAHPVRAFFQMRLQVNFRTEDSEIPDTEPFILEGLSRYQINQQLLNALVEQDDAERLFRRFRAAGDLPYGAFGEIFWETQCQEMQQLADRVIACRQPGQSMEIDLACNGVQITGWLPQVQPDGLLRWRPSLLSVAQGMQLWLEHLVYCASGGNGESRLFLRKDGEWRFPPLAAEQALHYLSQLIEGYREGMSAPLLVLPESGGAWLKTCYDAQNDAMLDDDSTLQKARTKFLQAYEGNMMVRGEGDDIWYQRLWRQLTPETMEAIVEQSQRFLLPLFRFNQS
T4 sequence (P08394 whole entry): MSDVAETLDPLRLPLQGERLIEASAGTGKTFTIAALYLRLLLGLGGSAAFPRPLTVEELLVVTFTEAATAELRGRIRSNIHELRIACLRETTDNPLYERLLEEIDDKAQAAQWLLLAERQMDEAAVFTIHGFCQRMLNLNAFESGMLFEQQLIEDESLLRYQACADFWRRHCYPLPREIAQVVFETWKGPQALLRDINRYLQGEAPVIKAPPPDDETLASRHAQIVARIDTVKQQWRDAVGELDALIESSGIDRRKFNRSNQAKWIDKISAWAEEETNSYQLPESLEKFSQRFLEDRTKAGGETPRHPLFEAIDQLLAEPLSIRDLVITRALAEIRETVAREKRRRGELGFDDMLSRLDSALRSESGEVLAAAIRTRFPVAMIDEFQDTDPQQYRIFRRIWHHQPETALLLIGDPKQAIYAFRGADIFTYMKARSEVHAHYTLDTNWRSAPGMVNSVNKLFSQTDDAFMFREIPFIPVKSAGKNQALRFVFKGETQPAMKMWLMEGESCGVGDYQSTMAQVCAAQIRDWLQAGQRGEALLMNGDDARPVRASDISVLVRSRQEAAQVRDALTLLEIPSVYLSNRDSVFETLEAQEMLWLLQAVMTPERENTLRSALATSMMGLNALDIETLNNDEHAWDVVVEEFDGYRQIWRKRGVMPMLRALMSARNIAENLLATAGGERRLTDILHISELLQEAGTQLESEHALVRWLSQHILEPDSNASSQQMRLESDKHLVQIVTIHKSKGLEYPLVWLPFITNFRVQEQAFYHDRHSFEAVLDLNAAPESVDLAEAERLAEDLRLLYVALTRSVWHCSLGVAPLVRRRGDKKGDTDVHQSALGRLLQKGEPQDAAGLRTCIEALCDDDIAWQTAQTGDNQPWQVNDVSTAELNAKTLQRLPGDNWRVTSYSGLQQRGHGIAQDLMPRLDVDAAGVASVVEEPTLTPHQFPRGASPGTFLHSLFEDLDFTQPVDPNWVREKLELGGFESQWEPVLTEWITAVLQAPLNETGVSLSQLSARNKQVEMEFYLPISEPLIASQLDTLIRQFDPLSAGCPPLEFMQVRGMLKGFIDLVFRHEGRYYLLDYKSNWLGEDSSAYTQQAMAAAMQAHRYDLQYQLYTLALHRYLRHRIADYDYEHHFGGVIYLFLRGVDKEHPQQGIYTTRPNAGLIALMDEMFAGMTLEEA
The experiment is described as follows: E. coli RecBCD inhibitors, dose response, counter-screen for AddAB inhibitor project, absorbance, V66 E. coli, mutant T4 phage (AID 492957). In kind it is functional, cell-based, Escherichia coli str. K-12 substr. MG1655.

A short description of experiment [9]: Counterscreen for AddAB inhibitors: absorbance-based bacterial cell-based high throughput dose response assay for inhibitors of bacterial viability. [Related pubchem assays (depositor defined):AID435030, AID449728, AID449731, AID488942, AID488955, AID488956]. Format: functional.

Regarding `CC1(C)CCN2CCC(C)(C)c3c(O)ccc1c32`, in experiment [1], the EC50 was 3.33 µM (active). Moreover, in experiment [2], the AC50 was 7.71 µM (active).

As for `Cc1ccc(N2C(=O)C3C(C(=O)c4ccccc4)=NN(c4ccccc4)C3C2=O)cc1` (stereo unspecified), the EC50 in [1] is 17.9 µM (inactive); in experiment [3], 22.2 µM (active).

Take `CCc1n[nH]c(CCN)n1`: the EC50 in experiment [4] was 3.76 µM (active).

Regarding `COC(=O)C1=C(C)N(Cc2ccccc2)C(NCCc2ccccn2)=N[C@H]1c1cccc(F)c1`, the half-inhibitory concentration (IC50) was 2.67 µM (active) in [5], 4.79 µM (active) in experiment [6] and > 100 µM (inactive) in experiment [7]. The EC50 in experiment [4] is 5.96 µM (active).

Regarding `COc1ccc(-c2cc(N3CCCC3)n3ncnc3n2)cc1`, the IC50 in [8] and in experiment [9] was > 119 µM (inactive) in each case.
